For the assay, the target named is Luciferin 4-monooxygenase (Photinus pyralis) (UniProt P08659). Nature of the assay: Confirmatory luminescence dose response, luciferase translation or activity, H4 neuroglioma cells (AID 2458).

Records with an inconclusive call do not appear.

Sequence of Luciferin 4-monooxygenase (Photinus pyralis) (P08659 whole entry, looked up): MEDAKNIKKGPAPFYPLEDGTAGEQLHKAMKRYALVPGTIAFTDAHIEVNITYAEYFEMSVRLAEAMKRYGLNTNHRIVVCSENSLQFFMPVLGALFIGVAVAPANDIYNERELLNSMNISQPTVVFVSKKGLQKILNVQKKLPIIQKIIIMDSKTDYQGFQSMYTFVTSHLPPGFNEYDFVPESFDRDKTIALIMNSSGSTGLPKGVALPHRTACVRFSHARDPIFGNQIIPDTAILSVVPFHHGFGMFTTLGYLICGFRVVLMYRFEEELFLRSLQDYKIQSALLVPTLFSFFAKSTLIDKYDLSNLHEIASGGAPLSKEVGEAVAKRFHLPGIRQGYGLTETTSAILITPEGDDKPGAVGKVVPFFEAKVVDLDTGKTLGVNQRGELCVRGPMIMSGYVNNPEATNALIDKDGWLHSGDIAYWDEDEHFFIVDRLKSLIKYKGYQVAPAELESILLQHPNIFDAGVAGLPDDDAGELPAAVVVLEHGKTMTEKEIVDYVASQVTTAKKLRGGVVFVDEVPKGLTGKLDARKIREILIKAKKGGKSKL

Usually EC50 stands for the concentration giving half of the maximal effect. On to `COc1ccc(O)c2c(=O)c3c(OC)cc4c(c3oc12)C1C=COC1O4` (stereo unspecified), for which the EC50 was 521 nM.

The values are drawn from PubChem BioAssay AID2458 (Broad Institute, 2010).
